# From EP0535528A1, “Antibacterial 5-Nitro-1-methyl-imidazolyl-3-terbutyl-2-hydroxy-aryl-carbinols” (EURORESEARCH S.r.L., priority 1991, dated 1993)
# Key:
# Swiss female albino mice = assay: Oral and intraperitoneal acute toxicity in mice (LD50, Probits method); type: in vivo; details: mice
# Method: 20 Swiss female albino mice are used for this test of the average weight of 20 g (±2), coming from Nossan breeding .
# Cages: in Makrolon® with saw dust litter, Number of animals per cage: 5 Acclimation period: 1 week Temperature: 22°C (± 2°C) Humidity : 60%, Diet: pellets for mice produced by Nossan firm, Water ad libitum Fast before the treatment: 16 hours
# Oral by gastric route and intraperitoneal.
# The substances to be studied: EU11100, EU11102, EU11103, EU11104 are treated with 0.5% carboxymethylcellulose in spring water, for the oral administration, whereas the same substances are intraperitoneally administered in the form of a physiological solution .
# For each of the above mentioned substances, a mother suspension is prepared having a concentration in the active ingredient of 250 mg/ml for the oral administration, and analogously a mother suspension is prepared for the intraperitoneal administration having a concentration of the desired active principle of 100 mg/ml.
# The following doses are used • a) oral route: 5000 mg/kg • b) intraperitoneal route : 2000 mg/kg
# If mortality is observed at the above mentioned doses, other doses are administered in order to obtain a dose-response curve.
# 5 animals are used for every utilized concentration.
# After the administration of the above substances the animals are kept under observation for 14 days , during which the mortality and the behaviour is observed.
# LD₅₀ is determined on the base of the cumulative mortality observed in the successive 14 days after the administration by using the Probits method.
# Helicobapter pylori [1] = assay: Inhibition halos of the bacterial growth (impregnated disks on agar); type: cell-based; details: for activity against the Helicobapter pylori strains used: 10 strains; for Inhibition halo (mm), Average: average of 10 strains
# Method: Comparison substance: Metronidazole Solubilization of the substances : All the substances to be studied are dissolved at room temperature in DMSO.
# Some commercially available antibiogram disks are so impregnated with the above mentioned compounds that each disk has concentration equal to 10, 1, 0.1, 0.01 µg.
# 10 strains of Helicobapter pylori are used of recent clinical isolation.
# Columbia Blood Agar Base is used, containing 5% of defibrinated horse blood, 2 % of calf serum, 2 vials of Vitox per liter of medium and Vancomicine (10 µg/ml) Trimetoprim lactate(5 µg/ml) and Polimixin B (2.5 U/ml).
# 0.1 ml of a suspension of the different used strains are uniformly distributed onto Petri plates, containing 20 ml of Columbia Blood Agar base, obtained by taking a sample, by means of a platinum loop, of different colonies from a 48 hours culture, grown in anaerobiosis jars with "Gas Pack", without a catalyst and diluted into a physiological solution.
# 4 disks per plate, previously impregnated with the substances under examination, are then placed onto the agar layer of each plate.
# After 48 hours of anaerobiosis incubation, as above described, the inhibition halos of the bacterial growth, produced by the different activity of the substances inside the agar, are evaluated.
# Helicobapter pylori [2] = assay: Minimal inhibiting concentration (agar dilution); type: cell-based
# Method: Substances under examination: EU11100, EU11102, EU11103, EU11104. Comparison substance: Metronidazole Solubilization of the substances: All the substances to be studied are dissolved at room temperature in DMSO. […] 10 strains of Helicobapter pylori are used of recent clinical isolation […] The sowing of the bacteria, prepared as described in the preceding test is carried out by means a "multi-point inoculator". After 48 hours incubation under the condition described in the preceding test, the plates are examined and the Minimal Inhibiting Concentration is evaluated, namely that dose corresponding to growth absence.
smiles,measurement,setting,value
"Cc1cc(C(O)c2ncc([N+](=O)[O-])n2C)c(O)c(C(C)(C)C)c1 (stereo not shown) [EU11103, 5-nitro-1-methyl-imidazolyl-3-terbutyl-2-hydroxy-5 methyl-phenyl-carbinol]",toxicity when intraperitoneally administered,"Swiss female albino mice; intraperitoneal, 2000 mg/kg",not toxic
same,toxicity when orally administered,"Swiss female albino mice; oral, 5000 mg/kg",not toxic
same,activity against the Helicobapter pylori strains used,Helicobapter pylori [1]; 0.1 µg/disk,active against 4 out of 10 strains
same,activity against the Helicobapter pylori strains used,Helicobapter pylori [1]; 1 µg/disk,active against all the Helicobapter pylori used
same,activity against the Helicobapter pylori strains used,Helicobapter pylori [1]; disk test,active against all the Helicobapter pylori strains used
same,"Inhibition halo (mm), Average",Helicobapter pylori [1]; 1 µg/disk,26.7 mm
same,"Inhibition halo (mm), Average",Helicobapter pylori [1]; 10 µg/disk,36.6 mm
same,Inhibition halo (mm) at the concentration (µg/disk),"Helicobapter pylori [1]; strain 1, 0.01 µg/disk",0 mm
same,Inhibition halo (mm) at the concentration (µg/disk),"Helicobapter pylori [1]; strain 1, 1 µg/disk",30 mm
same,Inhibition halo (mm) at the concentration (µg/disk),"Helicobapter pylori [1]; strain 1, 10 µg/disk",40 mm
same,Inhibition halo (mm) at the concentration (µg/disk),"Helicobapter pylori [1]; strain 2, 0.01 µg/disk",0 mm
same,Inhibition halo (mm) at the concentration (µg/disk),"Helicobapter pylori [1]; strain 2, 0.1 µg/disk",0 mm
same,Inhibition halo (mm) at the concentration (µg/disk),"Helicobapter pylori [1]; strain 3, 0.01 µg/disk",0 mm
same,Inhibition halo (mm) at the concentration (µg/disk),"Helicobapter pylori [1]; strain 3, 0.1 µg/disk",0 mm
same,Inhibition halo (mm) at the concentration (µg/disk),"Helicobapter pylori [1]; strain 3, 1 µg/disk",24 mm
same,Inhibition halo (mm) at the concentration (µg/disk),"Helicobapter pylori [1]; strain 3, 10 µg/disk",35 mm
same,Inhibition halo (mm) at the concentration (µg/disk),"Helicobapter pylori [1]; strain 4, 0.01 µg/disk",0 mm
same,Inhibition halo (mm) at the concentration (µg/disk),"Helicobapter pylori [1]; strain 4, 0.1 µg/disk",20 mm
same,Inhibition halo (mm) at the concentration (µg/disk),"Helicobapter pylori [1]; strain 4, 10 µg/disk",44 mm
same,Inhibition halo (mm) at the concentration (µg/disk),"Helicobapter pylori [1]; strain 5, 0.01 µg/disk",0 mm
same,Inhibition halo (mm) at the concentration (µg/disk),"Helicobapter pylori [1]; strain 5, 0.1 µg/disk",0 mm
same,Inhibition halo (mm) at the concentration (µg/disk),"Helicobapter pylori [1]; strain 5, 1 µg/disk",17 mm
same,Inhibition halo (mm) at the concentration (µg/disk),"Helicobapter pylori [1]; strain 5, 10 µg/disk",22 mm
same,Inhibition halo (mm) at the concentration (µg/disk),"Helicobapter pylori [1]; strain 6, 0.01 µg/disk",0 mm
same,Inhibition halo (mm) at the concentration (µg/disk),"Helicobapter pylori [1]; strain 6, 1 µg/disk",32 mm
same,Inhibition halo (mm) at the concentration (µg/disk),"Helicobapter pylori [1]; strain 6, 10 µg/disk",43 mm
same,Inhibition halo (mm) at the concentration (µg/disk),"Helicobapter pylori [1]; strain 7, 0.01 µg/disk",0 mm
same,Inhibition halo (mm) at the concentration (µg/disk),"Helicobapter pylori [1]; strain 7, 0.1 µg/disk",0 mm
same,Inhibition halo (mm) at the concentration (µg/disk),"Helicobapter pylori [1]; strain 7, 1 µg/disk",20 mm
same,Inhibition halo (mm) at the concentration (µg/disk),"Helicobapter pylori [1]; strain 7, 10 µg/disk",28 mm
same,Inhibition halo (mm) at the concentration (µg/disk),"Helicobapter pylori [1]; strain 8, 0.01 µg/disk",0 mm
same,Inhibition halo (mm) at the concentration (µg/disk),"Helicobapter pylori [1]; strain 8, 0.1 µg/disk",21 mm
same,Inhibition halo (mm) at the concentration (µg/disk),"Helicobapter pylori [1]; strain 8, 1 µg/disk",37 mm
same,Inhibition halo (mm) at the concentration (µg/disk),"Helicobapter pylori [1]; strain 8, 10 µg/disk",45 mm
same,Inhibition halo (mm) at the concentration (µg/disk),"Helicobapter pylori [1]; strain 9, 0.01 µg/disk",0 mm
same,Inhibition halo (mm) at the concentration (µg/disk),"Helicobapter pylori [1]; strain 9, 0.1 µg/disk",0 mm
same,Inhibition halo (mm) at the concentration (µg/disk),"Helicobapter pylori [1]; strain 9, 1 µg/disk",22 mm
same,Inhibition halo (mm) at the concentration (µg/disk),"Helicobapter pylori [1]; strain 9, 10 µg/disk",33 mm
same,Inhibition halo (mm) at the concentration (µg/disk),"Helicobapter pylori [1]; strain 10, 0.01 µg/disk",0 mm
same,Inhibition halo (mm) at the concentration (µg/disk),"Helicobapter pylori [1]; strain 10, 0.1 µg/disk",0 mm
same,Inhibition halo (mm) at the concentration (µg/disk),"Helicobapter pylori [1]; strain 10, 1 µg/disk",24 mm
same,MIC50,Helicobapter pylori [2]; 10 strains,0.03 µg/mL
same,MIC90,Helicobapter pylori [2]; 10 strains,0.06 µg/mL
same,MIC range,Helicobapter pylori [2]; 10 strains,0.015 to 0.016 µg/mL
same,MIC values,"Helicobapter pylori [2]; in words, compared with Metronidazole",very low MIC values
same,MIC,Helicobapter pylori [2]; strain 1,0.06 µg/mL
same,MIC,Helicobapter pylori [2]; strain 2,0.06 µg/mL
same,MIC,Helicobapter pylori [2]; strain 3,0.03 µg/mL
same,MIC,Helicobapter pylori [2]; strain 4,0.03 µg/mL
same,MIC,Helicobapter pylori [2]; strain 5,0.03 µg/mL
same,MIC,Helicobapter pylori [2]; strain 6,0.03 µg/mL
same,MIC,Helicobapter pylori [2]; strain 7,0.06 µg/mL
same,MIC,Helicobapter pylori [2]; strain 8,0.06 µg/mL
same,MIC,Helicobapter pylori [2]; strain 9,0.03 µg/mL
same,MIC,Helicobapter pylori [2]; strain 10,0.015 µg/mL
